Read-outs that look alike come from different tables or passages of the source.
How the values were obtained:
[1] = Kd of D4 by 3H-biotin binding and protein precipitation
Protocol: After incubation at room temperature for 20 hr, the protein was precipitated by adding 50 μL to 200 μL 0.2 M ZnSO4 followed by 200 μL 0.2 M NaOH. The protein precipitate was pelleted by centrifugation at 16,500 g for 5 min. The biotin bound by D4 was calculated from the total ^3H -biotin added minus the ^3H -biotin in the supernatant. The Kd was obtained using a nonlinear regression analysis (one-site binding hyperbola) with SigmaPlot (Systat Software; Point Richmond, Calif.).

[2] = system: biotinylated AP-CFP-TM on HeLa cells; test: Staining of biotinylated AP-CFP-TM on HeLa cells with Alexa Fluor 568 conjugates; assay type: cell-based; settings: 10 μg/mL Alexa Fluor 568 conjugate, 10 min at 4° C.
Protocol: (§1) Enzymatic biotinylation and imaging of HeLa transfectants were performed as previously described (Howarth, M. et al. Proc. Natl. Acad. Sci. USA 102: 7583-7588, 2005), except instead of 10 μM biotin and 1 mM ATP, we added 10 μM biotin-AMP (synthesized according to Coleman and Huang; Coleman, T. M. and Huang, F. Chem. Biol. 9: 1227-1236, 2002) to give equivalent biotinylation but minimizing the risk of purinoreceptor activation by ATP (Rathbone, M. P. et al., Prog. Neurobiol. 59: 663-690, 1999). […] Biotinylation of neurons was performed at day in vitro (DIV) 8 in Hanks' Balanced Salt Solution (HBSS) (Invitrogen) with 0.2 μM biotin ligase and 10 μM biotin-AMP for 5 min at 37° C. […] Neurons were washed with NeuroBasal media (Invitrogen) supplemented with B-27 (Invitrogen), 50 U/mL penicillin, 50 μg/mL streptomycin, and 0.2 mM L-glutamine and chased in the same medium for 0 or 2 hr at 37° C. Cells were then fixed in −20° C. methanol. […]
Images of HeLa cells were collected on a Zeiss Axiovert 200M inverted epifluorescence microscope using a 40× oil-immersion lens and a MicroMAX CCD camera (Roper Scientific; Tucson, Ariz.). CFP (420DF20 excitation, 450DRLP dichroic, 475DF40 emission) and Alexa568 (560DF20 excitation, 585DRLP dichroic, 605DF30 emission) images were collected and analyzed using OpenLab software (Improvision; Lexington, Mass.). Fluorescence images were background-corrected. […] Images were scaled to 16 bits and analyzed in Northern Eclipse (Empix Imaging; Ontario, Canada) with user-written software. […] Results were then calculated in terms of clusters per micrometer of dendrite. For assessment of pre-synaptic terminals, clusters were determined as before and average grey levels of clusters were compared between transfected dendrites and untransfected dendrites within the same field of view. […] “n” represents the number of transfected neurons for which clusters were measured. […]

biotinylated cells = test: Binding to biotinylated cells; assay type: cell-based
[3] = literature value; read-out: Kd for biotin; cited from earlier work
[4] = Stability of monovalent streptavidin to subunit exchange (SDS-PAGE); assay type: physicochemical; settings: for A1D3 rearranged into D4: PBS
Protocol: Methods described in the Methods section above herein were used for the following production and testing of monovalent streptavidin. Tests were performed to determine whether monovalent streptavidin would rearrange its subunit composition over time.

[5] = system: AP-neuroligin-1 on hippocampal neurons; test: Clustering of biotinylated AP-neuroligin-1 on hippocampal neurons; assay type: cell-based, rat; settings: for AP-neuroligin-1 clusters/μm: two hour incubation at 37° C., ± s.e.m., n=9; for AP-neuroligin-1 staining pattern: zero hours
Protocol: HeLa cells were grown in Dulbecco's Modified Eagle Medium (DMEM) with 10% Fetal Calf Serum, 50 U/mL penicillin and 50 μg/mL streptomycin. HeLa stably expressing AP-CFP-TM or Ala-CFP-TM have been previously described (Howarth, M. et al. Proc. Natl. Acad. Sci. USA 102: 7583-7588, 2005). Dissociated primary neuronal cultures were prepared from Embryonic Day 18 or 19 (E18/19) rats and transfected with Lipofectamine 2000 at DIV6 as in Levinson et al. (Levinson, J. N. et al. J. Biol. Chem. 280: 17312-17319, 2005).
as §1, with “methanol. There was no signal from wild-type streptavidin labeling if neurons were instead transfected with Ala-neuroligin-1 containing a point mutation in AP, confirming the specificity of labeling (Howarth, M. et al. Proc. Natl. Acad. Sci. USA 102: 7583-7588, 2005). To observe synapse formation, cells were biotinylated and stained with streptavidin as above, biotinylation and streptavidin staining was repeated at 6 hr, and then after 24 hr total chase cells were fixed in methanol.” for “methanol.”
Images of HeLa cells were collected on a Zeiss Axiovert 200M inverted epifluorescence microscope using a 40× oil-immersion lens and a MicroMAX CCD camera (Roper Scientific; Tucson, Ariz.). CFP (420DF20 excitation, 450DRLP dichroic, 475DF40 emission) and Alexa568 (560DF20 excitation, 585DRLP dichroic, 605DF30 emission) images were collected and analyzed using OpenLab software (Improvision; Lexington, Mass.). Fluorescence images were background-corrected. […] Images were scaled to 16 bits and analyzed in Northern Eclipse (Empix Imaging; Ontario, Canada) with user-written software. […] Results were then calculated in terms of clusters per micrometer of dendrite. For assessment of pre-synaptic terminals, clusters were determined as before and average grey levels of clusters were compared between transfected dendrites and untransfected dendrites within the same field of view. […]

[6] = Thermostability assay of tetramer (heat, SDS-PAGE); assay type: physicochemical; settings: 3 min, PBS
Protocol: 2.3 μM wild-type streptavidin or chimeric streptavidin in PBS was heated at the indicated temperature for 3 min in a PTC-200 PCR machine (MJ Research; Waltham, Mass.) and then immediately placed on ice (Bayer, E. A. et al. Electrophoresis 17: 1319-1324, 1996). Samples were mixed with 6× SDS-PAGE loading buffer and loaded onto a 16% polyacrylamide gel.

[7] = Off-rate of 3H-biotin with cold biotin chase and precipitation; assay type: binding; settings: 10 nM 3H-biotin, 1 μM streptavidin, 50 μM cold biotin, 37° C.; ± s.e.m.
Protocol: (Green, N. M. Methods in Enzymol. 184: 51-67, 1990). Dissociation was then initiated by addition of cold biotin at a final concentration of 50 μM and time-points taken over 5 hours at 37° C. 50 μL aliquots were removed and added to 200 μL 0.2M ZnSO4 chilled on ice, followed by 200 μL 0.2 M NaOH. The protein precipitate was pelleted by centrifugation at 16,500 g for 5 min, and ^3H-biotin in the supernatant was measured by liquid scintillation counting. Data were plotted as ln(fraction bound) versus time, and fit to a straight line by linear regression. Dissociation rates were deduced from the slope of the line and the equation: ln(fraction bound)=−koff(t) where fraction bound=(total ^3H-biotin−free ^3H-biotin at timepoint)/(total ^3H-biotin−free ^3H-biotin before cold biotin chase).

| Substance | Alexa staining of biotinylated AP-CFP-TM [2] | AP-neuroligin-1 clusters/μm [5] | AP-neuroligin-1 staining pattern [5] | off-rate from biotin [7] | other results |
| --- | --- | --- | --- | --- | --- |
| D4: streptavidin with 4 dead subunits (N23A, S27D, S45A; SEQ ID NO:3) [Tetramer D4] | no detectable staining | – | – | – | biotin binding (in words) [1]: negligible biotin binding; Kd ([1]; 24 μM D4, 0-500 μM 3H-biotin, room temperature 20 hr, ± s.e.m.): 918 ± 0.0117 µM |
| N23A, S27D: double mutant streptavidin tetramer with one of the weakest reported affinities for biotin | – | – | – | – | binding to biotinylated cells (biotinylated cells): still bound; Kd [3]: 71 µM |
| A1D3: chimeric streptavidin tetramer with one Alive (wild-type, His6-tagged) subunit and three Dead (N23A, S27D, S45A) subunits [Tetramer A1D3] | detected equally well | 0.087±0.021 clusters/μm | diffuse surface staining | 6.14±0.19×10^−5 s^−1 | A1D3 rearranged into D4 ([4]; 37° C. incubation for one day): 2%; Formation of A2D2 from subunit exchange ([4]; 37° C. one day or room temperature one week): not detected; A1D3 rearranged into D4 ([4]; room temperature incubation for one week): 3%; tetramer stability to heat denaturation ([6]; 100° C.): A significant fraction of A1D3 remained tetrameric; thermostability compared with wild-type streptavidin ([6]; various temperatures): little difference |
| wild-type streptavidin: wild-type core streptavidin tetramer with 4 biotin binding sites (SEQ ID NO:2) [reference compound] | detected equally well | 0.266±0.011 clusters/μm | diffuse surface staining | 5.17±0.25×10^−5 s^−1 | – |
